According to patent publication US20030125265A1, “Anti-estrogen receptor agents for chemotherapy” (priority 2001, published 2003):
Where a SMILES comes first, the peptide text is derived from it. [ ]: non-standard residue; d: D form. The star is where a group is joined. Nva = CCC[C@H](N)C(=O)O; Cbz = O=C(OCc1ccccc1)*; OtBu = CC(C)(C)O*

Columns and labels:
[1] = test system: Rb phosphorylation in MCF-7 cells; assay: Western blotting of Rb phosphorylation status; type: cell-based; conditions: MCF-7, in the presence of estrogen (FIG. 2B)
[2] = target: T1, estrogen receptor (Homo sapiens, UniProt P03372); assay: Estrogen-induced estrogen receptor degradation with proteasome inhibitor, western blot; type: cell-based; conditions: MCF-7, 10 nM estradiol, 24 hours (FIG. 5)
T1 construct: MCF-7, T47D, and ZR-75-1, which are estrogen receptor positive cell lines, were used; endogenous in cells; host or cells: MCF-7
T1 sequence (P03372 1-595): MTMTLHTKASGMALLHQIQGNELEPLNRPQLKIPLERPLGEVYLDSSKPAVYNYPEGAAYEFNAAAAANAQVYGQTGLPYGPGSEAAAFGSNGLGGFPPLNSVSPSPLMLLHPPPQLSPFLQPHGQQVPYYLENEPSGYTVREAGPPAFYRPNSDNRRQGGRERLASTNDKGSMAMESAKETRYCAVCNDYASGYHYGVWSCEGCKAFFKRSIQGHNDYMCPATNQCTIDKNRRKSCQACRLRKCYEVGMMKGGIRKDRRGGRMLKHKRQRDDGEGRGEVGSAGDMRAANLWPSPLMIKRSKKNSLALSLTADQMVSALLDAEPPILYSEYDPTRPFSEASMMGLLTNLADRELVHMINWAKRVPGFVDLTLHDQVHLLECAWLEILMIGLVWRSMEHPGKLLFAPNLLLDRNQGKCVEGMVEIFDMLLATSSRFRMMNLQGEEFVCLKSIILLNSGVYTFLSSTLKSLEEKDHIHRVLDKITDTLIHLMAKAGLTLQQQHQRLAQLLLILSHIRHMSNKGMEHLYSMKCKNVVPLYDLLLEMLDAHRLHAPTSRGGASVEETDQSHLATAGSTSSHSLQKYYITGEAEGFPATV
Protocol: For the control, ethanol and DMSO were added. The protein was extracted and quantified by western blot analysis to detect estrogen receptor and actin (for protein loading).

[3] = test system: estrogen receptor; assay: Effect of protease inhibitors on emodin-induced estrogen receptor depletion, western blot; type: cell-based; conditions: for estrogen receptor protein level with emodin plus protease inhibitor: MCF-7, 40 μM emodin simultaneously, chloroquine 100 μM, EGTA 5 mM, MG115 25 μM, PSI 25 mM (FIG. 6)
[4] = test system: estrogen receptor; assay: Estrogen receptor protein level by immunoblotting in MCF-7 cells
[5] = test system: breast tumor development in MMTV-neu transgenic mice; assay: Chemoprevention of breast tumor development in MMTV-neu transgenic mice; type: in vivo; conditions: MMTV-proto-neu female mice, emodin 0.5 mg or 1.0 mg weekly i.p. from 15 weeks of age (FIG. 1A)
Protocol: (§1) The following example addresses whether a compound may be used as a chemoprevention agent. In a particular embodiment, emodin is tested for its use as a chemopreventive agent. Specifically, a MMTV-neu transgenic mouse model and a MMTV-v-Ha-ras transgenic mouse model were utilized to determine the effects of emodin on the development of breast tumor. In these models, the proto-neu oncogene and v-Ha-ras oncogene, respectively, were under the transcriptional control of the murine mammary tumor virus (MMTV) long terminal repeat (LTR). The transgenic mice develop multiple mammary tumors spontaneously. For FIG. 1A, MMTV-proto-neu female transgenic mice were randomly divided into three groups. […] Mice tumor development was monitored weekly. For FIG. 1B, MMTV-v-Ha-ras transgenic mice were administered emodin (n=7) (1 mg/0.2 mL) or DMSO solvent control (n=8) through i.p. injection everyday from six weeks of age.

[6] = test system: MCF-7 cells; assay: Cell morphology and viability by trypan blue exclusion; type: cell-based; conditions: MCF-7, 4 hour treatment
Protocol: The effect on estrogen receptor was not a consequence of cytotoxicity, because MCF-7 cell morphology, as well as viability as assessed by trypan blue exclusion, were not affected after 4 hour treatment of emodin. The observed decrease in estrogen receptor protein level by emodin could be explained either by diminished protein synthesis or by enhanced protein degradation. To distinguish these two possibilities, a pulse-chase experiment was performed. The cells were labeled with [^35S] methionine for 1 hour and chased for 1 to 4 hours in the presence or absence of emodin. Pulse chase experiment was performed to determine the stability of the estrogen receptor proteins after treatment with emodin (see Example 1 for experimental details). In FIG. 4A, MCF-7 cells were treated with emodin at different time intervals. In FIG. 4B, MCF-7 cells were treated with DMSO at various time intervals. In FIG. 4C, proteins were quantitated by NIH Image software and plotted as the percentage of the value at the beginning of the chase.

[7] = test system: estrogen receptor; assay: Pulse-chase stability of estrogen receptor protein; type: cell-based; conditions: MCF-7, 40 μM emodin, chase 1 to 4 hours (FIG. 4)
Protocol: Metabolic labeling of protein, immunoprecipitation and gel electrophoresis—MCF-7 cells were incubated for 1 h at 37° C. in methionine-free medium containing 5% dialyzed, heat-inactivated FCS, with or without emodin (40 μM). [^35S] methionine was added to yield 100 μCi/ml in the medium. Incubation was continued for an additional hour. Cells were then rinsed twice with warm, complete medium and were incubated in complete medium with or without emodin (40 μM) at various intervals. Labeled cells were lysed in RIPA-B lysis buffer. Anti-estrogen receptor antibody (D75) immunoprecipitation was performed from 500 μg total cellular protein overnight at 4° C. 20 μg of rabbit anti-rat antibody was added to the mixture and incubated for 45 minutes at 4° C. Protein A-agarose was added and incubated for 45 minutes at 4° C. The mixture was washed three times with cold PBS. […] The intensity of the proteins was quantitated by NIH Image. Results were calculated as the percentage of the controls measured at the start of the chase period.
The effect on estrogen receptor was not a consequence of cytotoxicity, because MCF-7 cell morphology, as well as viability as assessed by trypan blue exclusion, were not affected after 4 hour treatment of emodin. […] In FIG. 4C, proteins were quantitated by NIH Image software and plotted as the percentage of the value at the beginning of the chase.

[8] = test system: estrogen receptor; assay: Estrogen receptor protein level by immunoblotting in ZR 75-1 cells; type: cell-based; conditions: ZR 75-1, 40 μM emodin, different time intervals (FIG. 3D)
Protocol: In a specific embodiment, emodin was tested for downregulation of estrogen receptor. […] Estrogen receptor protein levels in MCF-7 cells were measured by immunoblotting with monoclonal antibody D75. The same membrane was stripped and reprobed with anti-β-actin antibody to show the protein loading. […] The proteins were quantitated by NIH Image software and plotted as the percentage control (without emodin) and normalized with actin in FIG. 3B. […] ZR75-1 estrogen receptor positive breast cancer cell lines were treated with emodin (40 μM) for different time points. Immunoblot analysis for estrogen receptor were performed.

[9] = test system: breast tumor development in MMTV-v-Ha-ras transgenic mice; assay: Chemoprevention of breast tumor development in MMTV-v-Ha-ras transgenic mice; type: in vivo; conditions: emodin 1 mg/0.2 mL i.p. everyday from six weeks of age (FIG. 1B)
Protocol: as §1

[10] = test system: MCF-7 cells; assay: Thymidine incorporation, estrogen-induced DNA synthesis; type: cell-based; conditions: MCF-7, estrogen 10 nM, 20 hours; emodin 10 and 40 μM, tamoxifen 10 μM (FIG. 2A)
[11] = test system: estrogen receptor; assay: Estrogen receptor protein level in T47D cells; type: cell-based; conditions: 40 μM emodin, different time intervals
[12] = target: hsp90-estrogen receptor heteromeric complex (Homo sapiens, UniProt P03372); assay: Co-immunoprecipitation of hsp90 and estrogen receptor; type: cell-based

4-hydroxytamoxifen [4-hydroxy-tamoxifen, reference compound]
Rb phosphorylation status [1]: remained underphosphorylated

CCC[C@@H](C=O)NC(=O)[C@H](CC(C)C)NC(=O)[C@H](CC(C)C)NC(=O)OCc1ccccc1 [MG115, carbobenzoxyl-leucinyl-leucinyl-norvalinal-II] (Cbz-Leu-Leu-[Nva]-aldehyde)
estrogen receptor level after estrogen stimulation with proteasome inhibitor [2]: protected from degradation | estrogen receptor protein level with emodin plus protease inhibitor [3]: striking suppression

CC[C@H](C)[C@H](NC(=O)OCc1ccccc1)C(=O)N[C@@H](CCC(=O)OC(C)(C)C)C(=O)N[C@@H](C)C(=O)N[C@H](C=O)CC(C)C [PS1, N-Benzyloxycarbonyl-Ile-Glu(O-t-butyl)-Ala-leucinal] (Cbz-IE(OtBu)AL-aldehyde)
estrogen receptor protein level with emodin plus protease inhibitor [3]: striking suppression

COc1ccc(/C=C(\C#N)c2cccnc2)cc1OC [RG13022, reference compound]
estrogen receptor polypeptide level ([4]; MCF-7, 18 hours, genistein 100 μM, RG13022 5 μM (FIG. 3C)): significantly reduced

Cc1cc(O)c2c(c1)C(=O)c1cc(O)cc(O)c1C2=O [emodin]
mammary tumor development [5]: chemopreventive activity | cell morphology and viability (trypan blue exclusion) [6]: not affected | Rb phosphorylation status [1]: remained underphosphorylated | estrogen receptor protein level, percentage of control ([4]; MCF-7, 40 μM emodin, two hours, normalized with actin (FIG. 3B)): […] | IC50 ([4]; read-out: dose required for repressing 50% of estrogen receptor (IC50), MCF-7, 4 hours): […] | turnover of newly synthesized estrogen receptor [7]: strikingly enhanced | depletion of estrogen receptor polypeptide [8]: enhance the depletion | estrogen receptor protein level ([3]; MCF-7, 40 μM emodin alone (FIG. 6)): decreased rapidly | mammary tumor development [9]: chemopreventive activity | estrogen stimulated DNA synthesis (thymidine incorporation) [10]: […] | depletion of estrogen receptor polypeptide [11]: enhance the depletion | amount of hsp90-bound estrogen receptor ([12]; MCF-7, 40 μM emodin (FIG. 7A)): markedly increased | cellular levels of hsp90 ([12]; MCF-7, 40 μM emodin (FIG. 7B)): remained unchanged

CC/C(=C(\c1ccccc1)c1ccc(OCCN(C)C)cc1)c1ccccc1 [tamoxifen, reference compound]
estrogen stimulated DNA synthesis (thymidine incorporation) [10]: inhibit
